Measurements as given in patent US20230265151A1, “GIP/GLP1 CO-AGONIST COMPOUNDS” (priority 2020, published 2023).

Assays:
Assay type in all cases: cell-based
[1] = molecular target: T1, hGIPR (Homo sapiens, UniProt P48546); assay: Functional cAMP formation (HTRF) in HEK-293 clonal cells expressing hGIPR, 0.1% bovine casein, without or with 1.0% human serum albumin; conditions: for Emax: HEK293, read-out: hGIPR Emax, % ± SEM, percent of maximal response to GIP(1-42)NH2, 37° C., 0.1% bovine casein, arithmetic mean
T1 construct: expressed in transfected cells
T1 sequence (P48546 22-466): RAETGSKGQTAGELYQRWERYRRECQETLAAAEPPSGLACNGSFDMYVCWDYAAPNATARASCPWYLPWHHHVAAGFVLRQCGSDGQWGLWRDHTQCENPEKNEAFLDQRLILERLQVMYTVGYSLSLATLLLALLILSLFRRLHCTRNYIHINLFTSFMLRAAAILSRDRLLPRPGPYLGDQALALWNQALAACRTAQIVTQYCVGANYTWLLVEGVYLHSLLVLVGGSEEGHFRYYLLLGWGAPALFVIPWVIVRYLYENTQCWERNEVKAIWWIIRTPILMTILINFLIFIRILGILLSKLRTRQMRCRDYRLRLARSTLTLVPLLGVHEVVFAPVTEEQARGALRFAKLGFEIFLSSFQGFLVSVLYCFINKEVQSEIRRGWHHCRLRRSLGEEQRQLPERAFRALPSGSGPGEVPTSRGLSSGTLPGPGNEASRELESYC
How it was run: (§1)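 Cells were stimulated with peptide for 30 min at 37° C, then intracellular cAMP was measured by competitive HTRF (665/620 nm ratio) and converted to nM using a cAMP standard curve. Relative EC50 and Emax came from four-parameter logistic fits of percent maximal response against peptide concentration.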

[2] = molecular target: hGLP-1R (Homo sapiens, UniProt P43220); assay: Functional cAMP formation (HTRF) in HEK-293 clonal cells expressing hGLP-1R, 0.1% bovine casein, without or with 1.0% human serum albumin; set-up: expressed in transfected cells
Chain of hGLP-1R (P43220 24-463): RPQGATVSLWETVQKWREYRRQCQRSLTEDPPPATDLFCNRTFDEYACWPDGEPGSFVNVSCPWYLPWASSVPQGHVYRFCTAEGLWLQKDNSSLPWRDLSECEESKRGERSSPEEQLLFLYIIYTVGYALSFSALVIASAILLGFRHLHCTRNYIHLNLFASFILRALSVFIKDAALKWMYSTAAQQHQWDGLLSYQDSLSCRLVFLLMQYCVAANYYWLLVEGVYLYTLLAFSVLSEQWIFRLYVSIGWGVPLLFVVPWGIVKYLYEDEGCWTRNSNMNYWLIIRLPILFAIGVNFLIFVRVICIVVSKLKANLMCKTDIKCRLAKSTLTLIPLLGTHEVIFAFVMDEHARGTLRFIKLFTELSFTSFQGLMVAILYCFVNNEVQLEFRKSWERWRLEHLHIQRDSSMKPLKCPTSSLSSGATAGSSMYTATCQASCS
How it was run: as §1

[3] = molecular target: T2, hGCGR (Homo sapiens, UniProt P47871); assay: Functional cAMP formation (HTRF) in HEK-293 clonal cells expressing hGCGR, 0.1% bovine casein, without or with 1.0% human serum albumin; conditions: hGCGR EC50, nM (SEM, n), cAMP, incubated at 37° C., 0.1% bovine casein (no human serum albumin); geometric mean
T2 construct: expressed in transfected cells
T2 sequence (P47871 26-477): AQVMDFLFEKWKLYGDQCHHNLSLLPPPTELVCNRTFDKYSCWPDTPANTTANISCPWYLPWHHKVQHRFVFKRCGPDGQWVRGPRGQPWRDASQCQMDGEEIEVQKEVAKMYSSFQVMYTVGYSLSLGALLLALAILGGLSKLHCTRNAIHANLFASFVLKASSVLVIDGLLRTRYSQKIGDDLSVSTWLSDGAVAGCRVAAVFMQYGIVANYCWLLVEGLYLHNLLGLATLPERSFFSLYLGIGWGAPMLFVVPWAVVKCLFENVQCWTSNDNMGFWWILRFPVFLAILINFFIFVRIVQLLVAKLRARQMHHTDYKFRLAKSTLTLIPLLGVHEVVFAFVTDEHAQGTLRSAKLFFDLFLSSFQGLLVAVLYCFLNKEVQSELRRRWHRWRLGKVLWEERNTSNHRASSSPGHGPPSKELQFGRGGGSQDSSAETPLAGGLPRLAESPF
How it was run: as §1

CC[C@H](C)[C@H](NC(=O)[C@H](CC(C)C)NC(=O)[C@](C)(Cc1ccc(O)cc1)NC(=O)[C@H](CCCCNC(=O)COCCOCCNC(=O)COCCOCCNC(=O)CC[C@H](NC(=O)CCCCCCCCCCCCC(=O)O)C(=O)O)NC(=O)[C@@H](NC(=O)[C@](C)(Cc1ccccc1)NC(=O)[C@H](CCC(=O)O)NC(=O)C(C)(C)NC(=O)[C@H](CCC(N)=O)NC(=O)[C@H](C)NC(=O)[C@H](CCCCNC(=O)COCCOCCNC(=O)COCCOCCNC(=O)CC[C@H](NC(=O)CCCCCCCCCCCCC(=O)O)C(=O)O)NC(=O)[C@H](CCCN)NC(=O)[C@H](CC(=O)O)NC(=O)[C@H](CC(C)C)NC(=O)[C@](C)(CC(C)C)NC(=O)[C@@H](NC(=O)[C@H](CO)NC(=O)[C@H](Cc1ccncc1)NC(=O)[C@H](CC(=O)O)NC(=O)[C@H](CO)NC(=O)[C@@H](NC(=O)[C@](C)(Cc1ccccc1F)NC(=O)[C@@H](NC(=O)CNC(=O)[C@H](CCC(=O)O)NC(=O)C(C)(C)NC(=O)[C@@H](N)Cc1ccc(O)cc1)[C@@H](C)O)[C@@H](C)O)[C@@H](C)CC)[C@@H](C)CC)C(=O)N[C@@H](CCC(=O)O)C(=O)NCC(=O)NCC(=O)N1CCC[C@H]1C(=O)N[C@@H](CO)C(=O)N[C@@H](CO)C(=O)NCC(=O)N[C@@H](C)C(=O)N1CCC[C@H]1C(=O)N1CCC[C@H]1C(=O)N1CCC[C@H]1C(=O)N[C@@H](CO)C(N)=O [Example 82]
Emax [1]: 81.4 ± 6.09%
EC50 ([1]; hGIPR EC50, nM (SEM, n), cAMP, incubated at 37° C., 0.1% bovine casein (no human serum albumin), geometric mean): 0.0206 nM
EC50 ([2]; hGLP-1R EC50, nM (SEM, n), cAMP, incubated at 37° C., 0.1% bovine casein (no human serum albumin), geometric mean): 4.78 nM
EC50 [3]: > 9950 nM

CC[C@H](C)[C@H](NC(=O)[C@H](CC(C)C)NC(=O)[C@](C)(Cc1ccccc1)NC(=O)[C@H](CCCCNC(=O)COCCOCCNC(=O)COCCOCCNC(=O)CC[C@H](NC(=O)CCCCCCCCCCCCC(=O)O)C(=O)O)NC(=O)[C@@H](NC(=O)[C@](C)(Cc1ccccc1)NC(=O)[C@H](CCC(=O)O)NC(=O)C(C)(C)NC(=O)[C@H](CCC(N)=O)NC(=O)[C@H](C)NC(=O)[C@H](CCCCNC(=O)COCCOCCNC(=O)COCCOCCNC(=O)CC[C@H](NC(=O)CCCCCCCCCCCCC(=O)O)C(=O)O)NC(=O)[C@H](CCCN)NC(=O)[C@H](CC(=O)O)NC(=O)[C@H](CC(C)C)NC(=O)[C@](C)(CC(C)C)NC(=O)[C@@H](NC(=O)[C@H](CO)NC(=O)[C@H](Cc1ccncc1)NC(=O)[C@H](CC(=O)O)NC(=O)[C@H](CO)NC(=O)[C@@H](NC(=O)[C@](C)(Cc1ccccc1F)NC(=O)[C@@H](NC(=O)CNC(=O)[C@H](CCC(=O)O)NC(=O)C(C)(C)NC(=O)[C@@H](N)Cc1ccc(O)cc1)[C@@H](C)O)[C@@H](C)O)[C@@H](C)CC)[C@@H](C)CC)C(=O)N[C@@H](CCC(=O)O)C(=O)NCC(=O)NCC(=O)N1CCC[C@H]1C(=O)N[C@@H](CO)C(=O)N[C@@H](CO)C(=O)NCC(=O)N[C@@H](C)C(=O)N1CCC[C@H]1C(=O)N1CCC[C@H]1C(=O)N1CCC[C@H]1C(=O)N[C@@H](CO)C(N)=O [Example 84]
Emax [1]: 98.5%
Emax ([2]; HEK293, read-out: hGLP-1R Emax, % ± SEM, percent of maximal response to GLP-1(7-36)NH2, 37° C., 0.1% bovine casein, arithmetic mean): 94%
EC50 [3]: > 9950 nM
